Here are results for 8 compounds from ChEMBL document CHEMBL1201862, “PubChem BioAssay data set” (2004).

Common to all, as to assay: growth of human tumour cells (NCI), 48 h
For assay [1], the system named is SK-OV-3.
For assay [2], the system named is RPMI-8226.
Assay [3] concerns A549.
The test system of assay [4] is K562.
Assay [5] concerns OVCAR-5.
Assay [6] has as its system OVCAR-3.
Assay [7] concerns RXF 393.
Assay [8] concerns CCRF-CEM.
Assay [9] has as its system HCT-116.
For assay [10], the system named is KM12.
In assay [11] the test system is SK-MEL-28.
Assay [12] relates to SR.
Assay [13] has as its system HOP-62.
The test system of assay [14] is HL-60.
The test system of assay [15] is SF-295.
Assay [16] concerns UACC-257.
The subject of assay [17] is SW-620.
Assay [18] has as its system MDA-N.
Assay [19] has as its system NCI-H23.
The subject of assay [20] is A498.

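All cell lines were grown in 96-well plates and treated with compound for 48 hours. Abbreviation: GI50, concentration required for 50% inhibition of growth.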 Calls of active or inactive are those of the source. Cut-off read from the data, not from the text of the source: active = GI50 up to about 1.1 µM and inactive = higher.

As to `COc1cc(/C=C2\N=C(c3ccccc3)N(c3nc4cc(C)c(C)cc4s3)C2=O)cc(OC)c1OC`, the GI50 was 27.7 µM (inactive) in assay [1]; 19.3 µM (inactive) in assay [2]; 30.1 µM (inactive) in assay [3]; 35.4 µM (inactive) in [4]; 27.2 µM (inactive) in assay [5]; 20 µM (inactive) in [6]. Further, the GI50 in assay [7] is 19.3 µM (inactive); in assay [8] it was 7.41 µM (inactive); in [9], 20.2 µM (inactive); in assay [10], 21.8 µM (inactive); in [11], 62.2 µM (inactive); in assay [12], 18.4 µM (inactive). Moreover, the GI50 is 19.9 µM (inactive) in assay [13]; 17.8 µM (inactive) in [14]; 27.9 µM (inactive) in assay [15]; 28.9 µM (inactive) in [16]; 29.4 µM (inactive) in assay [17]; 16.1 µM (inactive) in [18].

As for `O=C1N=C2SC=C(NC(=S)Nc3ccccc3)N2NC12c1ccccc1-c1ccccc12`, the GI50 in assay [1], in [2], in assay [3], in [4], in [5] and in [19] was > 10 µM (inactive) each time. Moreover, the GI50 in [7], in [8], in assay [9], in assay [10], in assay [11] and in [12] was > 10 µM (inactive) in each case. In addition, the GI50 in assay [13], in [14], in [15], in assay [16], in assay [17] and in assay [18] was > 10 µM (inactive) each time.

Consider `O=C1c2cc([N+](=O)[O-])ccc2NC2C(O)c3ccccc3N12` (configuration not stated), for which the GI50 in assay [1] is 17.7 µM (inactive); in assay [2], 18.5 µM (inactive); in assay [3] it was 35.7 µM (inactive); in [4] it was 22.2 µM (inactive); in [5], > 100 µM (inactive); in assay [19], 24.3 µM (inactive). Also, the GI50 in [6] is 20.4 µM (inactive); in assay [20], 18.3 µM (inactive); in [7] it was 16.9 µM (inactive); in assay [9], 30.8 µM (inactive); in [10], 42.7 µM (inactive); in assay [12] it was 19.3 µM (inactive). Moreover, the GI50 is 30.1 µM (inactive) in assay [13], 30.1 µM (inactive) in assay [15], 16 µM (inactive) in assay [16] and 69.5 µM (inactive) in assay [18].

On to `O=C1C(O)=C(CCCCCCCCC2CCCCC2)C(=O)c2ccccc21` [MENOCTONE], for which the GI50 in [1] was 16.1 µM (inactive); in assay [2], 6.15 µM (inactive); in [3], 5.58 µM (inactive); in [4], 2.51 µM (inactive); in assay [5], 17 µM (inactive); in [19], 3.33 µM (inactive). For the same compound, the GI50 is 10.7 µM (inactive) in assay [6]; 2.72 µM (inactive) in [8]; 3.33 µM (inactive) in [9]; 8.49 µM (inactive) in [10]; 11.4 µM (inactive) in assay [11]; 6.4 µM (inactive) in assay [12]. The GI50 in assay [13] is 11.6 µM (inactive); in assay [14], 1 µM (active); in assay [15], 6.98 µM (inactive); in assay [16], 6.28 µM (inactive); in assay [17], 4.23 µM (inactive); in [18], 4.75 µM (inactive).

As for `N#CC(/N=N/c1ccccc1C(=O)O)C(N)=O` (configuration not stated), the GI50 in [2], in assay [3], in assay [4], in assay [5], in [19] and in assay [6] was > 100 µM (inactive) throughout. The GI50 in assay [7], in [8], in assay [9], in assay [10], in assay [11] and in [12] was > 100 µM (inactive) in each case. The GI50 in assay [13], in assay [14], in assay [15], in assay [16], in assay [17] and in assay [18] was > 100 µM (inactive) throughout.

For the compound `N#CC12C(=O)NC(=O)C1(C#N)C1C=CC2CC1` (configuration not stated), the GI50 in assay [1], in assay [2], in assay [3], in [5], in assay [19] and in assay [6] was > 100 µM (inactive) throughout. Further, the GI50 in [7], in [8], in assay [9], in assay [10], in [11] and in [12] was > 100 µM (inactive) throughout. Moreover, the GI50 in assay [14], in [15], in assay [16], in assay [17] and in [18] was > 100 µM (inactive) throughout.

Turning to `COC(=O)[C@]1(NC(=O)c2ccccc2)C[C@H]1C=O`, the GI50 is 93.8 µM (inactive) in assay [1]; > 100 µM (inactive) in [2]; > 100 µM (inactive) in assay [3]; > 100 µM (inactive) in assay [4]; > 100 µM (inactive) in assay [5]; > 100 µM (inactive) in assay [19]. Besides, the GI50 in assay [6] was > 100 µM (inactive); in assay [20], > 71.8 µM (inactive); in assay [7] it was > 100 µM (inactive); in assay [8], 21.6 µM (inactive); in assay [9] it was > 100 µM (inactive); in [10] it was > 61.5 µM (inactive). Besides, the GI50 was > 100 µM (inactive) in assay [11]; 28.2 µM (inactive) in assay [12]; > 100 µM (inactive) in assay [13]; > 78.5 µM (inactive) in assay [15]; > 100 µM (inactive) in assay [16]; > 100 µM (inactive) in assay [17]. Besides, the GI50 in assay [18] was > 100 µM (inactive).

Regarding `Cc1cc(OP2(=O)NCc3ncccc3O2)ccc1Cl` (configuration not stated), the GI50 in assay [2] was > 100 µM (inactive); in [3], > 100 µM (inactive); in [4] it was 84.5 µM (inactive); in assay [5], > 100 µM (inactive); in assay [19], > 100 µM (inactive); in assay [6] it was > 100 µM (inactive). Also, the GI50 was > 100 µM (inactive) in assay [20]; > 100 µM (inactive) in assay [7]; > 100 µM (inactive) in assay [8]; > 100 µM (inactive) in assay [9]; 58.5 µM (inactive) in assay [10]; > 100 µM (inactive) in assay [11]. For the same compound, the GI50 in [12], in assay [13], in assay [15], in assay [16], in assay [17] and in assay [18] was > 100 µM (inactive) each time.
